Measured values published in ChEMBL document CHEMBL1139310, “Lead identification to generate 3-cyanoquinoline inhibitors of insulin-like growth factor receptor (IGF-1R) for potential use in cancer treatment” (Bioorg Med Chem Lett, 2009).
In brackets after ≈: the same amount, converted by molar mass.

tested on: not listed separately; assay: Aqueous solubility at pH 7.4; format: physicochemical

**Q.** With CCN1CCN(CCCOc2cc3ncc(C#N)c(Nc4ccc(Sc5nc(C)c(C)n5CC)c(Cl)c4)c3cc2OC)CC1 as the molecule, how does the solubility read?
**A.** 2000 µg/mL (≈ 3.15 mM)

tested on: not listed separately; assay: Selectivity ratio of IC50 for GST-IR to IC50 for GST-IGF1R

**Q.** With CCN1CCN(CCCOc2cc3ncc(C#N)c(Nc4ccc(Sc5nc(C)c(C)n5CC)c(Cl)c4)c3cc2OC)CC1 as the molecule, how does the Ratio IC50 read?
**A.** 0.17

molecular target: Insulin-like growth factor 1 receptor (Homo sapiens, UniProt P08069); assay: Inhibition of GST-IGF1R
Sequence (P08069 31-736 limits assumed): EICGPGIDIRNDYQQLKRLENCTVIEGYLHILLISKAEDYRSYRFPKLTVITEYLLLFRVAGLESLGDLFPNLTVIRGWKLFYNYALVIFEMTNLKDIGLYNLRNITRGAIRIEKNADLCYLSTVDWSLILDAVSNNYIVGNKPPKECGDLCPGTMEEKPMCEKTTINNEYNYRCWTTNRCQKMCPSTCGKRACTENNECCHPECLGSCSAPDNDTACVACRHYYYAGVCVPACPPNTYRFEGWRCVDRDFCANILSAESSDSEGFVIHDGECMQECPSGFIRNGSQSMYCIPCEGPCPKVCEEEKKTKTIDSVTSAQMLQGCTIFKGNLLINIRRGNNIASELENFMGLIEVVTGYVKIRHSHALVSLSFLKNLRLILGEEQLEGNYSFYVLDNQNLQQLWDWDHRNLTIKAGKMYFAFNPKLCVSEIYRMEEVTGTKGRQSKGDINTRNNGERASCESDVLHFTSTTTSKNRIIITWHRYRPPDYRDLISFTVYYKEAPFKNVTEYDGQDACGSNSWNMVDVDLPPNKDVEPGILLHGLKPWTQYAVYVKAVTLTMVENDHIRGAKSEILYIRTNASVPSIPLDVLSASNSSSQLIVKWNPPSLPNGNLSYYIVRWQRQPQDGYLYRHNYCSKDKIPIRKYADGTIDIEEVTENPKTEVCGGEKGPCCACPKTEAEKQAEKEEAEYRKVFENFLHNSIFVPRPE
Sequence (P08069 741-1367 limits assumed): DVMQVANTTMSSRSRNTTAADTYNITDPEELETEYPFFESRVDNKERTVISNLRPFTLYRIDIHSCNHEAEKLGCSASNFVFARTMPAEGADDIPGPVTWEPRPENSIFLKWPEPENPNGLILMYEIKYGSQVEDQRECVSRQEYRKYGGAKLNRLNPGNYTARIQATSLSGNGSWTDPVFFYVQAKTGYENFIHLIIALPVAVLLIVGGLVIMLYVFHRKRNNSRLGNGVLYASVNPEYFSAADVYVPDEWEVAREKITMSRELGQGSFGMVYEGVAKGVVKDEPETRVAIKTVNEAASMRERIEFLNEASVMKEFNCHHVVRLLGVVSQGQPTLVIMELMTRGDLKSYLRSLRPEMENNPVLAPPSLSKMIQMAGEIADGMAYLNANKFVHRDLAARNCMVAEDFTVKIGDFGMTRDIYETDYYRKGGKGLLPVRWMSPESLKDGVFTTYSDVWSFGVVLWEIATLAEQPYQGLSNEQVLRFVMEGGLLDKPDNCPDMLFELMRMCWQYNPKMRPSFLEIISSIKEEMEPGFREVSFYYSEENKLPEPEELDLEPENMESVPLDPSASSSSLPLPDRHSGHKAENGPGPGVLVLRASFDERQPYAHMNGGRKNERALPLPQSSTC

**Q.** With CCn1c(Sc2ccc(Nc3c(C#N)cnc4cc(NCCCN(CCO)CCO)c(OC)cc34)cc2Cl)nc(C)c1C as the molecule, how does the IC50 read?
**A.** 26 nM

**Q.** For CCn1c(Sc2ccc(Nc3c(C#N)cnc4cc(NCCCN5CCN(C)CC5)c(OC)cc34)cc2Cl)nc(C)c1C, which IC50 is on record?
**A.** 16 nM

**Q.** With CCC1CCCCN1CCCOc1cc2ncc(C#N)c(Nc3ccc(Sc4nc(C)c(C)n4CC)c(Cl)c3)c2cc1OC (stereo not given) as the molecule, how does the IC50 read?
**A.** 32 nM

**Q.** For COc1cc2c(Nc3ccc(Sc4nccn4C)cc3)c(C#N)cnc2cc1OCCCN1CCOCC1, which IC50 is on record?
**A.** 1000 nM

**Q.** For CCn1c(Sc2ccc(Nc3c(C#N)cnc4cc(OCCCNS(C)(=O)=O)c(OC)cc34)cc2Cl)nc(C)c1C, which IC50 is on record?
**A.** 31 nM

**Q.** Which IC50 does the source give for COc1cc2c(Nc3ccc(Sc4nccn4C)c(Cl)c3)c(C#N)cnc2cc1NCCCN(C)C here?
**A.** 151 nM

**Q.** With CCN1CCN(CCCOc2cc3ncc(C#N)c(Nc4ccc(Sc5nc(C)c(C)n5CC)c(Cl)c4)c3cc2OC)CC1 as the molecule, how does the IC50 read?
**A.** 9 nM

**Q.** With COc1cc2c(Nc3ccc(Sc4ccccc4O)cc3)c(C#N)cnc2cc1OCCCN1CCOCC1 as the molecule, how does the IC50 read?
**A.** 1090 nM

**Q.** For CCn1c(Sc2ccc(Nc3c(C#N)cnc4cc(NCCCc5ccccc5)c(OC)cc34)cc2Cl)nc(C)c1C, which IC50 is on record?
**A.** 13700 nM

**Q.** With COc1cc2c(Nc3ccc(Sc4ccccn4)c(Cl)c3)c(C#N)cnc2cc1OCCCN1CCOCC1 as the molecule, how does the IC50 read?
**A.** > 10000 nM

**Q.** With CCOC(=O)NN1CCN(CCCOc2cc3ncc(C#N)c(Nc4ccc(Sc5nc(C)c(C)n5CC)c(Cl)c4)c3cc2OC)CC1 as the molecule, how does the IC50 read?
**A.** 17 nM

**Q.** For COc1cc2c(Nc3ccc(Sc4nccn4C)c(Cl)c3)c(C#N)cnc2cc1N(C)CCCN(C)C, which IC50 is on record?
**A.** 150 nM

**Q.** Which IC50 does the source give for CCNC(=O)N1CCN(CCCOc2cc3ncc(C#N)c(Nc4ccc(Sc5nc(C)c(C)n5CC)c(Cl)c4)c3cc2OC)CC1 here?
**A.** 45 nM

**Q.** For COc1cc2c(Nc3ccc(Sc4nccn4C)c(Cl)c3)c(C#N)cnc2cc1OCCCN1CCOCC1, which IC50 is on record?
**A.** 66 nM

**Q.** With CCC(=O)C1CCN(CCCOc2cc3ncc(C#N)c(Nc4ccc(Sc5nc(C)c(C)n5CC)c(Cl)c4)c3cc2OC)CC1 as the molecule, how does the IC50 read?
**A.** 135 nM

**Q.** With COc1cc2c(Nc3ccc(Sc4nccn4C)c(Cl)c3)c(C#N)cnc2cc1N1CCN(C)CC1 as the molecule, how does the IC50 read?
**A.** 600 nM

**Q.** With CCn1c(Sc2ccc(Nc3c(C#N)cnc4cc(OCCCN5CCOCC5)c(OC)cc34)cc2Cl)nc(C)c1C as the molecule, how does the IC50 read?
**A.** 15 nM

**Q.** For CCn1c(Sc2ccc(Nc3c(C#N)cnc4cc(NCCCN5CCOCC5)c(OC)cc34)cc2Br)nc(C)c1C, which IC50 is on record?
**A.** 20 nM
